Test results: ChEMBL document CHEMBL4765450, “The components and activities analysis of a novel anticoagulant candidate dHG-5” (Eur J Med Chem, 2020)
Active and inactive are the calls of the source. The calls are words filed in the database; no cut-off is given here.

Experiments:
[1] = target: Coagulation factor XI (Homo sapiens) (UniProt P03951); test: Inhibition of factor 11a (unknown origin) at IC90 using S-2366 as substrate preincubated for 1 min followed by chromogenic substrate addition and measured for 2 mins in presence of AT-III; conditions: time 3.0 min
[2] = target: T1, Coagulation factor XII (Homo sapiens) (UniProt P00748); test: Inhibition of factor 12a (unknown origin) at IC50 using kallikrein chromogenic substrate preincubated for 1 min followed by chromogenic substrate addition and measured for 2 mins in presence of AT-III; conditions: time 3.0 min
T1 sequence (whole entry): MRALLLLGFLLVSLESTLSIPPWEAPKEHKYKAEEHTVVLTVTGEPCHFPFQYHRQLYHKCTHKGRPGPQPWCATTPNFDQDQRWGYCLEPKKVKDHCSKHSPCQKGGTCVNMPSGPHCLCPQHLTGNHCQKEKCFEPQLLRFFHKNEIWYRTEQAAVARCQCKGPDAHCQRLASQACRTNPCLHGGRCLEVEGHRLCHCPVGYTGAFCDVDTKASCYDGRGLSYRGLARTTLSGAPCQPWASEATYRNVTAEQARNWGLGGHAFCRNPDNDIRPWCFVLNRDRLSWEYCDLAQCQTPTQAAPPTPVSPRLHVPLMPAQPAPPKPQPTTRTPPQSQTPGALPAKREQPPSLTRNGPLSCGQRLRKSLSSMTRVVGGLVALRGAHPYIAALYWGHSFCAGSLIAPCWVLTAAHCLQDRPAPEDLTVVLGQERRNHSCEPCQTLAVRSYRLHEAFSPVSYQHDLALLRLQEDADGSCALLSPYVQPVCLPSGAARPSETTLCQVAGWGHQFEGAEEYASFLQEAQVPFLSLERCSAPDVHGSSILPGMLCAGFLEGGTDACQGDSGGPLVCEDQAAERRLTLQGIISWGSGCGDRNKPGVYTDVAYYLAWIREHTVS

Plasma [3] = test: Anticoagulation activity in human plasma assessed as drug level causing 20 times doubling of APTT preincubated for 2 mins followed by APTT reagent and measured after 3 mins by coagulometric method; type: functional; conditions: time 5 min
Plasma [4] = test: Anticoagulation activity in human plasma assessed as drug level causing 20 times doubling of APTT by measuring activity potency of oligosaccharides multiplied by the percentage of oligosaccharides in dHG-5 preincubated for 2 mins followed by APTT reagent and measured after 3 mins by coagulometric method relative to dHG-5; type: functional; conditions: time 5 min
[5] = target: T2, Coagulation factor VII (Homo sapiens) (UniProt P08709); test: Inhibition of factor 7a (unknown origin) at IC50 using pefachrome factor VIIa as substrate preincubated for 1 min followed by chromogenic substrate addition and measured for 2 mins in presence of AT-III; conditions: time 3.0 min
T2 sequence (whole entry): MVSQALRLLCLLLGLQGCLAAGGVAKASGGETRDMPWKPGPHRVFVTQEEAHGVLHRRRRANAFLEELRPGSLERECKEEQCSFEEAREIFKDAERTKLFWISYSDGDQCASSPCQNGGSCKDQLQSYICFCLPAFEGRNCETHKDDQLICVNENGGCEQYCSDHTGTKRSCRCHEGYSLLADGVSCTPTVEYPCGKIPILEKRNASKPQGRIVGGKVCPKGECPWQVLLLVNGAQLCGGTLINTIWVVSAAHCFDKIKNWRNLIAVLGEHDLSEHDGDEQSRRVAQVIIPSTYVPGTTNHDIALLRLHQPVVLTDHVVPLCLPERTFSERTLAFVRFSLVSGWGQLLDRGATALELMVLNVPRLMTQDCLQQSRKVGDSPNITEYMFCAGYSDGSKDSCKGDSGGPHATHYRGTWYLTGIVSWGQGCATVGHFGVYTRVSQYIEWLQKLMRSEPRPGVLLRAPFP

[6] = target: Prothrombin (Homo sapiens) (UniProt P00734); test: Inhibition of factor 2a (unknown origin) at IC50 preincubated for 1 min followed by chromogenic substrate addition and measured for 2 mins in presence of AT-III; conditions: time 3.0 min
Plasma [7] = test: Anticoagulation activity in human plasma assessed as drug level causing 20 times doubling of APTT preincubated for 2 mins followed by APTT reagent and measured after 3 mins by coagulometric method relative to dHG-5; type: functional; conditions: time 5 min
Rattus norvegicus [8] = test: (§1) Antithrombotic activity in thromboplastin and stasis-induced Sprague-Dawley rat deep venous thrombosis model assessed as reduction in venous thrombosis at 13.5 mg/kg, sc administered 1 hr prior to thromboplastin addition for 20 secs followed by establishment of stasis for 20 mins relative to dHG-5; type: functional; conditions: time 80.33 min, 1.339 h
[9] = target: Coagulation factor XI (Homo sapiens) (UniProt P03951); test: Inhibition of factor 11a (unknown origin) at IC50 using S-2366 as substrate preincubated for 1 min followed by chromogenic substrate addition and measured for 2 mins in presence of AT-III; conditions: time 3.0 min
[10] = target: Prothrombin (Homo sapiens) (UniProt P00734); test: Inhibition of factor 2a (unknown origin) at IC90 preincubated for 1 min followed by chromogenic substrate addition and measured for 2 mins in presence of AT-III; conditions: time 3.0 min
[11] = target: Coagulation factor X (Homo sapiens) (UniProt P00742); test: Inhibition of factor 10a (unknown origin) at IC90 preincubated for 1 min followed by chromogenic substrate addition and measured for 2 mins in presence of AT-III relative to control; conditions: time 3.0 min
Rattus norvegicus [12] = test: Antithrombotic activity in thromboplastin and stasis-induced Sprague-Dawley rat deep venous thrombosis model assessed as reduction in venous thrombosis at 13.5 mg/kg, sc administered 1 hr prior to thromboplastin addition for 20 secs followed by establishment of stasis for 20 mins; type: functional; set-up: scale not given: the % may be the effect or the level left; conditions: time 80.33 min, 1.339 h
[13] = target: T3, Coagulation factor IX/VIII (Homo sapiens) (UniProt P00740+P00451); test: Inhibition of human citrated plasma iXase (factor 8a-factor 9a complex) assessed as activity potency of oligosaccharides multiplied by the percentage of oligosaccharides in dHG-5 preincubated for 2 mins followed by factor 10 addition and measured after 1 min by FXa chromogenic substrate SXa-11 based assay relative to dHG-5; type: protein-complex assay; conditions: time 3.0 min
[14] = target: Coagulation factor X (Homo sapiens) (UniProt P00742); test: Inhibition of factor 10a (unknown origin) at IC50 preincubated for 1 min followed by chromogenic substrate addition and measured for 2 mins; conditions: time 3.0 min
[15] = target: Coagulation factor IX/VIII (Homo sapiens, UniProt P00451+P00740); test: Inhibition of human citrated plasma iXase (factor 8a-factor 9a complex) preincubated for 2 mins followed by factor 10 addition and measured after 1 min by FXa chromogenic substrate SXa-11 based assay; type: protein-complex assay
[16] = target: Coagulation factor X (Homo sapiens) (UniProt P00742); test: Inhibition of factor 10a (unknown origin) at IC50 preincubated for 1 min followed by chromogenic substrate addition and measured for 2 mins in presence of AT-III; conditions: time 3.0 min
[17] = target: Prothrombin (Homo sapiens) (UniProt P00734); test: Inhibition of factor 2a (unknown origin) at IC50 preincubated for 1 min followed by chromogenic substrate addition and measured for 2 mins; conditions: time 3.0 min
[18] = target: T2, Coagulation factor VII (Homo sapiens); test: Inhibition of factor 7a (unknown origin) at IC50 using pefachrome factor VIIa as substrate preincubated for 1 min followed by chromogenic substrate addition and measured for 2 mins; conditions: time 3.0 min
Coagulation factor IX [19] = target: T4, Coagulation factor IX (Homo sapiens, UniProt P00740); test: Inhibition of factor 9a (unknown origin) binding to immobilized biotinylated oHG-11 assessed as activity potency of oligosaccharides multiplied by the percentage of oligosaccharides in dHG-5 by biolayer interferometry relative to dHG-5
Coagulation factor IX [20] = target: T4, Coagulation factor IX; test: Inhibition of factor 9a (unknown origin) binding to immobilized biotinylated oHG-11 by biolayer interferometry
Coagulation factor IX [21] = target: T4, Coagulation factor IX; test: Inhibition of factor 9a (unknown origin) binding to immobilized biotinylated oHG-11 by biolayer interferometry relative to dHG-5
[22] = target: T3, Coagulation factor IX/VIII (Homo sapiens); test: Inhibition of human citrated plasma iXase (factor 8a-factor 9a complex) preincubated for 2 mins followed by factor 10 addition and measured after 1 min by FXa chromogenic substrate SXa-11 based assay relative to dHG-5; type: protein-complex assay; conditions: time 3.0 min
[23] = target: Coagulation factor XI (Homo sapiens) (UniProt P03951); test: Inhibition of factor 11a (unknown origin) at IC50 using S-2366 as substrate preincubated for 1 min followed by chromogenic substrate addition and measured for 2 mins; conditions: time 3.0 min
[24] = target: T1, Coagulation factor XII (Homo sapiens); test: Inhibition of factor 12a (unknown origin) at IC50 using kallikrein chromogenic substrate preincubated for 1 min followed by chromogenic substrate addition and measured for 2 mins; conditions: time 3.0 min
Plasma [25] = test: Anticoagulation activity in AT-III-deficient human plasma preincubated for 2 mins followed by APTT reagent and measured after 3 mins by coagulometric method; type: functional, cell-free; conditions: time 5.0 min
Plasma [26] = test: Anticoagulation activity in HCII-deficient human plasma preincubated for 2 mins followed by APTT reagent and measured after 3 mins by coagulometric method; type: functional, cell-free; conditions: time 5.0 min
Rattus norvegicus [27] = test: as §1, with “venous thrombosis by measuring activity potency of oligosaccharides multiplied by the percentage of oligosaccharides in dHG-5 at 13.5” for “venous thrombosis at 13.5”; type: functional; conditions: time 80.33 min, 1.339 h

Chain of Coagulation factor X (Homo sapiens) (P00742 41-179 limits assumed): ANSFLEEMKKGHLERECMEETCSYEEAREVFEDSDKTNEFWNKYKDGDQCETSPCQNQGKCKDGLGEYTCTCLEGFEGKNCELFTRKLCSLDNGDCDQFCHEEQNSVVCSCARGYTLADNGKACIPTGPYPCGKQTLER
Chain of Coagulation factor X (Homo sapiens) (P00742 235-488 limits assumed): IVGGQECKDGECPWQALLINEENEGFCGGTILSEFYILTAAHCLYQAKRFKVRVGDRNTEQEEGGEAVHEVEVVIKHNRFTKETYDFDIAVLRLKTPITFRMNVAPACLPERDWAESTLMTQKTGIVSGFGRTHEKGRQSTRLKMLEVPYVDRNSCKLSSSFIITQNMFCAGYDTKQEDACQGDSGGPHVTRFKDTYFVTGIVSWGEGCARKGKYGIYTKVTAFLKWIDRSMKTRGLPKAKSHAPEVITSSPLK
Chain of Coagulation factor XI (Homo sapiens) (P03951 19-387 limits assumed): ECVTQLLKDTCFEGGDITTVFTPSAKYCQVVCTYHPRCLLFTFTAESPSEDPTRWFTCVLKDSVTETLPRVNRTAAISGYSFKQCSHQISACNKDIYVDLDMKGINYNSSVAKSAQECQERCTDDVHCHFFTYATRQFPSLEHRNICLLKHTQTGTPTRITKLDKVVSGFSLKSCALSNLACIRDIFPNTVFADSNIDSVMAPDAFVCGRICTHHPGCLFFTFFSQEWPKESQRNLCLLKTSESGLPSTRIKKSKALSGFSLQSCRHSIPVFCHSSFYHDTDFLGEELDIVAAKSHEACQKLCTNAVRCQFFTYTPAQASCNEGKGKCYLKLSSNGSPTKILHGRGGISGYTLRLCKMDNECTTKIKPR
Chain of Coagulation factor XI (Homo sapiens) (P03951 388-625 limits assumed): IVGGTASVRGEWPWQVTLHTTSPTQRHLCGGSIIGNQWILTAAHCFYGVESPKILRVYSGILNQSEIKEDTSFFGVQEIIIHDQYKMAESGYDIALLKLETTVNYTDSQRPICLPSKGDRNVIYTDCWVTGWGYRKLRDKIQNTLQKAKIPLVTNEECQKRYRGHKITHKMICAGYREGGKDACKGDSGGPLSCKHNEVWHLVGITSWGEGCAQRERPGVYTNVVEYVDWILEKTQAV
T4 sequence (P00740 47-191 limits assumed): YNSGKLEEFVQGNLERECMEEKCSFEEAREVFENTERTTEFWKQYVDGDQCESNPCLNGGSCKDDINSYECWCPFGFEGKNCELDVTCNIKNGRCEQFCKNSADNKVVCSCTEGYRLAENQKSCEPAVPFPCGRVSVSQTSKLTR
T4 sequence (P00740 227-461 limits assumed): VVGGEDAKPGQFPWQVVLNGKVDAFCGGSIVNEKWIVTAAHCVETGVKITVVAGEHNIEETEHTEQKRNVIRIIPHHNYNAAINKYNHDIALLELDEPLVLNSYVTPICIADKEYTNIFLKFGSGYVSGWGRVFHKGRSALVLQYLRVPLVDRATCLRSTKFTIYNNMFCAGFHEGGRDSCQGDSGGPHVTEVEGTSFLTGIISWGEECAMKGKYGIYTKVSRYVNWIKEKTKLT
Chain of Coagulation factor IX/VIII (P00451 20-759 limits assumed): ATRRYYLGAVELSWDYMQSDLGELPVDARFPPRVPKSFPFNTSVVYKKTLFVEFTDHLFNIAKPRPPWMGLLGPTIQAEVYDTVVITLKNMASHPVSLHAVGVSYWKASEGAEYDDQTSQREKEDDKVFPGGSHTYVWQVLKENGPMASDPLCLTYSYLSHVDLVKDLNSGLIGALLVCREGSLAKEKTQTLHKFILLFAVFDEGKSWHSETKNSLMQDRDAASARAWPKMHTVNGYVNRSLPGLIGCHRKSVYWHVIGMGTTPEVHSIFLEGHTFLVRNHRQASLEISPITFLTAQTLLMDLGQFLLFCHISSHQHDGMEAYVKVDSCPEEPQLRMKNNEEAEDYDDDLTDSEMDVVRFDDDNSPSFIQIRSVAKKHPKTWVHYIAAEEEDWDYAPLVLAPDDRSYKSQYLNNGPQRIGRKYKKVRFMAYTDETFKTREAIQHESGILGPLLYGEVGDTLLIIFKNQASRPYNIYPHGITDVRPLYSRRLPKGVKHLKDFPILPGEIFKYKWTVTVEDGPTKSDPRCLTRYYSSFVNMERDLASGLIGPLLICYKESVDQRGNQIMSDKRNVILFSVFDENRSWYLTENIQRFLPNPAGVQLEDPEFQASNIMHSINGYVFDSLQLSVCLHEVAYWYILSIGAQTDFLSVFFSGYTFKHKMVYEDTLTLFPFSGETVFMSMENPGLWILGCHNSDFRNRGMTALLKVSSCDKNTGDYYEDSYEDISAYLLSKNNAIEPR
Chain of Coagulation factor IX/VIII (P00451 1668-2351 limits assumed): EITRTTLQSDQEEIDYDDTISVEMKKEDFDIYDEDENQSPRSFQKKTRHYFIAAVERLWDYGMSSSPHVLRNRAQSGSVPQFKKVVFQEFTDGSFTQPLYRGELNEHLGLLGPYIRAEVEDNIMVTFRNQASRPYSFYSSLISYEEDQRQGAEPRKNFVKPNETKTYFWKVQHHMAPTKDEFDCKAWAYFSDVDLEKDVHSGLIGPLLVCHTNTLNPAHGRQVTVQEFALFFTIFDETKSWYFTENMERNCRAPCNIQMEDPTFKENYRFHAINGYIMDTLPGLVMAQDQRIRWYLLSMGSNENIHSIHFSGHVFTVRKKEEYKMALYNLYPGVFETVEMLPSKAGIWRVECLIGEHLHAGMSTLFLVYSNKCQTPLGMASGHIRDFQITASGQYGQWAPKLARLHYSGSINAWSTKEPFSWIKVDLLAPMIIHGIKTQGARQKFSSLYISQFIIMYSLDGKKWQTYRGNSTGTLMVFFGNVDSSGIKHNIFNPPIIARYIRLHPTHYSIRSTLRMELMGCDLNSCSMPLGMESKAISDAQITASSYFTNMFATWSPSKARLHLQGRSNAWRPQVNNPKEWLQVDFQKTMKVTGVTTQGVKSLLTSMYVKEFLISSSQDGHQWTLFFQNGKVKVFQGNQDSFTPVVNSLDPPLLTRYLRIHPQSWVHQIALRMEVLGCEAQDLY
Chain of Coagulation factor IX/VIII (P00740 47-191 limits assumed): as the sequence (P00740 47-191 limits assumed) above
Chain of Coagulation factor IX/VIII (P00740 227-461 limits assumed): as the sequence (P00740 227-461 limits assumed) above

CC(=O)N[C@H]1[C@H](O[C@@H]([C@H](O[C@@H]2O[C@@H](C)[C@@H](OS(=O)(=O)[O-])[C@@H](OS(=O)(=O)O)[C@@H]2O)[C@@H](O)CO)[C@H](O)C(=O)[O-])O[C@H](COS(=O)(=O)[O-])[C@H](OS(=O)(=O)[O-])[C@@H]1O[C@@H]1OC(C(=O)[O-])=C[C@H](O[C@@H]2O[C@@H](C)[C@@H](OS(=O)(=O)[O-])[C@@H](OS(=O)(=O)O)[C@@H]2O)[C@H]1O.[Na+].[Na+].[Na+].[Na+].[Na+].[Na+]
inhibition [1]: Active
inhibition [2]: inactive
EC (Plasma [3]): 199 µM
Ratio (Plasma [4]): 0.04 U
inhibition [5]: inactive
inhibition [6]: inactive
Ratio (Plasma [7]): 0.9 U
Ratio (Rattus norvegicus [8]): 3.96 U
inhibition [9]: inactive
inhibition [10]: Active
inhibition [11]: 14.2%
Activity (Rattus norvegicus [12]): 30.8%
Ratio [13]: 0.02 U
inhibition [14]: inactive
IC50 [15]: > 3 µM
inhibition [16]: inactive
inhibition [17]: inactive
inhibition (active/not active) [18]: Active
Ratio (Coagulation factor IX [19]): 0.16 U
IC50 (Coagulation factor IX [20]): 12.9 µM
Ratio (Coagulation factor IX [21]): 3.32 U
Ratio [22]: 0.36 U
inhibition [23]: inactive
inhibition [24]: inactive
Activity (Plasma [25]): Active
Activity (Plasma [26]): Active
Ratio (Rattus norvegicus [27]): 0.19 U
